This passage reports Ki results from ChEMBL document CHEMBL1131964, “Preparation and receptor binding affinities of cyclic C-terminal neurotensin (8-13) and (9-13) analogues” (Bioorg Med Chem Lett, 1999).

Each structure is given as a SMILES string. Some results are limits rather than exact numbers.

For the experiment, the target named is Neurotensin receptor (Homo sapiens, UniProt O95665+P30989). Description: Binding ability to compete with [125I]Tyr3-NT (0.15 nM) for human NT receptors cloned in CHO cells. It is filed as cell-based.
For the molecule `CC[C@@H](C)[C@@H](NC(=O)[C@@H]1Cc2ccc(cc2)OCCCCCC(=O)N2CCC[C@H]2C(=O)N1)C(=O)N[C@@H](CC(C)C)C(=O)O`, the Ki – broadly, a dissociation constant, usually derived from enzyme kinetics or from competition with a known ligand – is listed as greater than 2000 nM.

Turning to `CC[C@@H](C)[C@@H](NC(=O)[C@@H]1Cc2ccc(cc2)OCCCCCC(=O)N[C@H](CCCN=C(N)N)C(=O)N2CCC[C@H]2C(=O)N1)C(=O)N[C@@H](CC(C)C)C(=O)O`, the Ki is reported as 450 nM. With `CC[C@H](C)[C@H](NC(=O)[C@H](Cc1ccc(O)cc1)NC(=O)[C@@H]1CCCN1C(=O)[C@@H](N)CCCN=C(N)N)C(=O)N[C@@H](CC(C)C)C(=O)O` the figure was 28 nM.
